Laboratory results from US20230117034A1, “PYRAZOLOTRIAZINES” (Bayer Aktiengesellschaft, priority 2019, published 2023).

Legend:
[1] = target: T1, CYCLIN K (nuclear staining in CAL-120 cells) (Homo sapiens, UniProt O75909); assay: CYCLIN K nuclear protein level: immunofluorescence high content analysis (CAL-120); assay type: cell-based; details: 24 h, 50% reduction of nuclear CCNK staining intensity, median, read-out: CYCLIN K degradation IF, DC50-[mol/l] (median)
T1 construct: endogenous in cells; host or cells: CAL-120 human breast cancer cells (DSMZ ACC 459)
Method: 8. CYCLIN K nuclear protein level: immunofluorescence High Content Analysis
CAL-120 human breast cancer cells (DSMZ ACC 459) are seeded in 1536-well microtiter plates (800 cells per well) containing 50 nanoL of compounds in Dose-Response. Control wells received DMSO or Example 4. Plates are then incubated for 24 h at 37° C. in an humidified incubator and fixed with 4% PFA for 10 min. Then immunofluorescence (IF) against CYCLIN K (ThermoFisher Scientific CONK Antibody #PA5-85020, rabbit, 1:200 dilution) is performed using standard IF protocols. Cells are then stained with Hoechst 33342 (Life Technologies, H-1399, 0.1 microg/ml) and imaged on an automated confocal microscopy system (e.g. Perkin Elmer Opera Phenix). Nuclear and cytoplasmic intensity as well as the nuclear/cytoplasmic intensity ratio is determined by automated image analysis using custom generated scripts (MetaXpress). Data is then transferred to Genedata Screener software, normalized to DMSO and control and DC50 values (degrading concentration to achieve 50% reduction of nuclear CCNK staining intensity relative to controls) are reported.

[2] = test system: BRCA1 mRNA expression in MDA-MB-231 cells; assay: qRT-PCR assay: BRCA1 mRNA expression in MDA-MB-231; assay type: cell-based, human; details: Homo sapiens, MDA-MB-231, Inhibition of BRCA1 mRNA expression in MDA-MB-231 cells; median; read-out: RTqPCR-MDA-MB-231, IC50, BRCA1 (median)
Outline: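 Read-out is RT-qPCR with expression normalised to the GAPDH housekeeping gene. Before RNA isolation, plated cells (200,000 per well, 24 h attachment) received test substances continuously over 24 h, and 600 ng of RNA served as cDNA template.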

CDK9/CycT1 = target: T2, CDK9/CycT1 (Homo sapiens, UniProt P50750); assay: CDK9/CycT1 high ATP kinase assay (TR-FRET, 2 mM ATP); assay type: biochemical; details: 2 mM ATP (high ATP); median; read-out: CDK9/CyclinT1, 2 mM ATP (high ATP), IC50 (median)
T2 construct: Recombinant full-length His-tagged human CDK9 and CycT1; purchased Life Technologies PV4131; host or cells: insect cells
Outline: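 Full-length His-tagged human CDK9/CycT1 (insect cell, ~0.5 μg/mL) preincubated 15 min at 22 °C with compound in Tris pH 8.0, MgCl2, DTT buffer before reaction with biotinylated peptide substrate at high ATP (2 mM).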

T2 sequence (P50750 whole entry): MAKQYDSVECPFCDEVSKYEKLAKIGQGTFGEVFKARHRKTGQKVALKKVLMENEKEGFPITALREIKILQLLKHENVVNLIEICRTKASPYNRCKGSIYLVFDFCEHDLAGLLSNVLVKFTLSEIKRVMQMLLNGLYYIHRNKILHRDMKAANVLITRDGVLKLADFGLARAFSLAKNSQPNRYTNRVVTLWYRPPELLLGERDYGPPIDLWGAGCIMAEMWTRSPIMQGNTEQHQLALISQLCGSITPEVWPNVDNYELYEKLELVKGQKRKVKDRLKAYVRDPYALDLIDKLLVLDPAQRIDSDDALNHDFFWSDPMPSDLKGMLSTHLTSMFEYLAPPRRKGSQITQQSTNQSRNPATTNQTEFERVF
T2 sequence (O60563 whole entry partner): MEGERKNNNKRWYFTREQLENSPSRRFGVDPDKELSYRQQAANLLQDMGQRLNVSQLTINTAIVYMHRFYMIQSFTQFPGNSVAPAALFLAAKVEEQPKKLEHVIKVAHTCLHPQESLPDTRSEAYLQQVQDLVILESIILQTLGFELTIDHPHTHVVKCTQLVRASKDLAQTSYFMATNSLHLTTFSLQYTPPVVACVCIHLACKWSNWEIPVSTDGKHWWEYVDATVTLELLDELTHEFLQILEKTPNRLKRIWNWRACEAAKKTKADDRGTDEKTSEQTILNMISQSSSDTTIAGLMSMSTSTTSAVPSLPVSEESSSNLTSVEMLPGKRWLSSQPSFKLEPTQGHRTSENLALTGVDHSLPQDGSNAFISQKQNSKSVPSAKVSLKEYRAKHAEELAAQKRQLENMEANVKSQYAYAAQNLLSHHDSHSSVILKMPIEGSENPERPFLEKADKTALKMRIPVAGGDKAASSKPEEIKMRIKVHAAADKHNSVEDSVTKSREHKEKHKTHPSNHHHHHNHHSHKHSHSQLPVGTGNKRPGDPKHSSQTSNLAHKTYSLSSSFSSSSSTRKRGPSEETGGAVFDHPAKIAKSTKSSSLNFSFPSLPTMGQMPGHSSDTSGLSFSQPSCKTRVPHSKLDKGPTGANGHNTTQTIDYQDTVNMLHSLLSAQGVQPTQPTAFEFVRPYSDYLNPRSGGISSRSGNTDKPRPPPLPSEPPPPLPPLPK
T1 sequence (O75909 whole entry): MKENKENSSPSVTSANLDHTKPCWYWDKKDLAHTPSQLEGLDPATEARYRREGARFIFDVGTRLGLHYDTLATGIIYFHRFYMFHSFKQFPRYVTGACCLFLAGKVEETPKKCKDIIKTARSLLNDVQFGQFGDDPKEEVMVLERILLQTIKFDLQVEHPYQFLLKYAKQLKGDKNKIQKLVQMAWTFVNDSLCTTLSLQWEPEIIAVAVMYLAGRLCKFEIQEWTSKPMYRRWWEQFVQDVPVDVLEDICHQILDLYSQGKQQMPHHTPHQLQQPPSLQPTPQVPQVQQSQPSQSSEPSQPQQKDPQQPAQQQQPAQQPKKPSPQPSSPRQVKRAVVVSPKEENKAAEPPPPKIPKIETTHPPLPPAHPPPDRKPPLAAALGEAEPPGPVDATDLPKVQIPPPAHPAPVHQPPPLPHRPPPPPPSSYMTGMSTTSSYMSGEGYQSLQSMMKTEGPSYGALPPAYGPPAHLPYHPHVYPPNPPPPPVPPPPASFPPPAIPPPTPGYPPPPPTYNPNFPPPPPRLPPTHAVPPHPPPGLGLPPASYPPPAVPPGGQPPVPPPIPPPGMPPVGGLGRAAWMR
T1 sequence (Q9NYV4 whole entry partner): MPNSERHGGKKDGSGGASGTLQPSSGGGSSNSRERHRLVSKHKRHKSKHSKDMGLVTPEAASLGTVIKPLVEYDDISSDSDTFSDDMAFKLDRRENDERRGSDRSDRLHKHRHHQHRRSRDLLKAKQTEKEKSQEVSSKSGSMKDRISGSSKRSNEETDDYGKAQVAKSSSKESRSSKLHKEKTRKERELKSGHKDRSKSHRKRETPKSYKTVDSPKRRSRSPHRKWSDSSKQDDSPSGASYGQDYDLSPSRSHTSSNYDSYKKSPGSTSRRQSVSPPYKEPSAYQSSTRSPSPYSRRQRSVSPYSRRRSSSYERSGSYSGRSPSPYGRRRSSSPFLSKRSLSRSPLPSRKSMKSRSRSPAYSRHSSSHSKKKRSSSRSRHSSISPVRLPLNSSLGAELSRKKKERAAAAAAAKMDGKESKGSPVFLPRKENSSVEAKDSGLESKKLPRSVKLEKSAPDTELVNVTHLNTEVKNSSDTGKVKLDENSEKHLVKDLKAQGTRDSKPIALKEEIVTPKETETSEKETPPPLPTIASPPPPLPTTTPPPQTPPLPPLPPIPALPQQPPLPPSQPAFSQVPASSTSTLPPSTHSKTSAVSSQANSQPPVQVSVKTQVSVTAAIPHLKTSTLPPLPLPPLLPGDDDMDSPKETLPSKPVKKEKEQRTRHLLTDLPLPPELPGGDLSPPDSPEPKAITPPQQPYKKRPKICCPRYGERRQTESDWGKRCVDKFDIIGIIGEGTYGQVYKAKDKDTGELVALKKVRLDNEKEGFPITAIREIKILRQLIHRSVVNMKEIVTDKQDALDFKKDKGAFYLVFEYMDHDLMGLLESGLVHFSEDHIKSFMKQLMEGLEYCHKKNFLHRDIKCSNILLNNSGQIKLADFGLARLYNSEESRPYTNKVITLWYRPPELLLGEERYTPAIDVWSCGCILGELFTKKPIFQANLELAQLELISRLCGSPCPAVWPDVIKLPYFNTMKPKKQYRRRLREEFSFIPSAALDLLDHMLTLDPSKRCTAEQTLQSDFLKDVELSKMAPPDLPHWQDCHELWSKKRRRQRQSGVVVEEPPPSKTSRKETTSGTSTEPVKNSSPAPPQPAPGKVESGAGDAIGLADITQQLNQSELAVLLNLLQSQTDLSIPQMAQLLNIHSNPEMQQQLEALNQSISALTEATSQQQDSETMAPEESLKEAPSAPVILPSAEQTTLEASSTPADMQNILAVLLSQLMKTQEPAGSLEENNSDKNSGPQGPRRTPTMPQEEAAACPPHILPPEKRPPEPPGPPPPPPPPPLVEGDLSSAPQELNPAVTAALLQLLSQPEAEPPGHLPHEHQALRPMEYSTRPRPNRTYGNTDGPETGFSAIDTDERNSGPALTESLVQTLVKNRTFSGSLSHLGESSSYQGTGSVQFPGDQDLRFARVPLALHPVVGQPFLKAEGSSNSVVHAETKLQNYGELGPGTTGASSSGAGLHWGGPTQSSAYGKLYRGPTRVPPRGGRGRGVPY

Row | Compound | DC50 [1] [nM] | IC50 [2] [nM] | IC50 (CDK9/CycT1) [µM]
1 | C[C@H]1CN(c2nc(NCc3nnc(-c4cccc(F)c4)[nH]3)n3ncc(Br)c3n2)CCN1C [Example 154, 8-bromo-2-[(3S)-3,4-dimethylpiperazin-1-yl]-N-{[5-(3-fluorophenyl)-4H-1,2,4-triazol-3-yl]methyl}pyrazolo[1,5-a][1,3,5]triazin-4-amine] | 0.713 | 7.04 | 2.56
2 | C[C@@H]1CN(c2nc(NCc3nnc(-c4ccccc4)[nH]3)n3ncc(Br)c3n2)C[C@H](C)N1 [Example 127, 8-bromo-2-[(3R,5S)-3,5-dimethylpiperazin-1-yl]-N-[(5-phenyl-4H-1,2,4-triazol-3-yl)methyl]pyrazolo[1,5-a][1,3,5]triazin-4-amine] | 2.77 | 16.2 | 6.32
3 | Brc1cnn2c(NCc3nc4ccccc4[nH]3)nc(N3CCOCC3C3CC3)nc12 (stereo not drawn) [Example 117, N-(1H-benzimidazol-2-ylmethyl)-8-bromo-2-(3-cyclopropylmorpholin-4-yl)pyrazolo[1,5-a][1,3,5]triazin-4-amine] | 2.62 | 121 | > 20
4 | C[C@H]1CN(c2nc(NCc3nc4ccccc4[nH]3)n3ncc(Br)c3n2)CCN1C [Example 132, N-[(1H-benzimidazol-2-yl)methyl]-8-bromo-2-[(3S)-3,4-dimethylpiperazin-1-yl]pyrazolo[1,5-a][1,3,5]triazin-4-amine] | 2.22 | 29.5 | > 20
5 | Fc1cccc(-c2nnc(CNc3nc(N4CCNCC4)nc4c(Br)cnn34)[nH]2)c1 [Example 152, 8-bromo-N-{[5-(3-fluorophenyl)-4H-1,2,4-triazol-3-yl]methyl}-2-(piperazin-1-yl)pyrazolo[1,5-a][1,3,5]triazin-4-amine] | 1.11 | 4.25 | 1.99
6 | CN1CCN(c2nc(NCc3nc4cc(F)ccc4[nH]3)n3ncc(C4CC4)c3n2)CC1 [Example 164, 8-cyclopropyl-N-[(5-fluoro-1H-benzimidazol-2-yl)methyl]-2-(4-methylpiperazin-1-yl)pyrazolo[1,5-a][1,3,5]triazin-4-amine] | 1.12 | 2.55 | > 20
7 | CN1CCN(c2nc(NCc3nc4c(F)c(F)ccc4[nH]3)n3ncc(C4CC4)c3n2)CC1 [Example 159, 8-cyclopropyl-N-[(4,5-difluoro-1H-benzimidazol-2-yl)methyl]-2-(4-methylpiperazin-1-yl)pyrazolo[1,5-a][1,3,5]triazin-4-amine] | 0.0663 | 1.68 | > 20
8 | C[C@@H]1CN(c2nc(NCc3nc4ccccc4[nH]3)n3ncc(Br)c3n2)C[C@H](C)N1C [Example 129, N-(1H-benzimidazol-2-ylmethyl)-8-bromo-2-[(3R,5S)-3,4,5-trimethylpiperazin-1-yl]pyrazolo[1,5-a][1,3,5]triazin-4-amine] | 3.39 | 174 | > 20
9 | C[C@@H]1CN(c2nc(NCc3nc4ccccc4[nH]3)n3ncc(Br)c3n2)CCN1C [Example 135, N-[(1H-benzimidazol-2-yl)methyl]-8-bromo-2-[(3R)-3,4-dimethylpiperazin-1-yl]pyrazolo[1,5-a][1,3,5]triazin-4-amine] | 0.554 | 30 | > 20
10 | c1cncc(-c2cnn3c(NCc4nc5ccccc5[nH]4)nc(N4CCOCC4)nc23)c1 [Example 108, N-[(1H-benzimidazol-2-yl)methyl]-2-(morpholin-4-yl)-8-(pyridin-3-yl)pyrazolo[1,5-a][1,3,5]triazin-4-amine] | 2.91 | 87.4 | > 20
11 | C[C@@H]1CN(c2nc(NCc3nnc(-c4ccccc4)[nH]3)n3ncc(Br)c3n2)CCN1C.O=CO [Example 130, 8-bromo-2-[(3R)-3,4-dimethylpiperazin-1-yl]-N-[(5-phenyl-4H-1,2,4-triazol-3-yl)methyl]pyrazolo[1,5-a][1,3,5]triazin-4-amine formate] | 2.01 | 37.6 | 4.86
12 | Fc1ccc2[nH]c(CNc3nc(N4CCOCC4)nc4c(Br)cnn34)nc2c1 [Example 101, 8-bromo-N-[(5-fluoro-1H-benzimidazol-2-yl)methyl]-2-(morpholin-4-yl)pyrazolo[1,5-a][1,3,5]triazin-4-amine] | 0.892 | 3.14 | > 20
13 | Fc1ccc(-c2cnn3c(NCc4nc5ccccc5[nH]4)nc(N4CCOCC4)nc23)cc1 [Example 106, N-[(1H-benzimidazol-2-yl)methyl]-8-(4-fluorophenyl)-2-(morpholin-4-yl)pyrazolo[1,5-a][1,3,5]triazin-4-amine] | 2.45 | 32.2 | > 20
14 | CC1(C)CN(c2nc(NCc3nc4ccccc4[nH]3)n3ncc(C4CC4)c3n2)CCO1 [Example 123, N-[(1H-benzimidazol-2-yl)methyl]-8-cyclopropyl-2-(2,2-dimethylmorpholin-4-yl)pyrazolo[1,5-a][1,3,5]triazin-4-amine] | 5.03 | 71.2 | > 20

Other lines, results leading:

Row | DC50 [1] [nM] | IC50 [2] [nM] | IC50 (CDK9/CycT1) [µM] | Compound
15 | 1.3 | 2.53 | > 20 | COc1ccc2[nH]c(CNc3nc(N4CCN(C)CC4)nc4c(Br)cnn34)nc2c1 [Example 161, 8-bromo-N-[(5-methoxy-1H-benzimidazol-2-yl)methyl]-2-(4-methylpiperazin-1-yl)pyrazolo[1,5-a][1,3,5]triazin-4-amine]
16 | 0.119 | 0.903 | > 20 | Cc1ccc2[nH]c(CNc3nc(N4CCOCC4)nc4c(Br)cnn34)nc2c1 [Example 157, 8-bromo-N-[(5-methyl-1H-benzimidazol-2-yl)methyl]-2-(morpholin-4-yl)pyrazolo[1,5-a][1,3,5]triazin-4-amine]
17 | 1 | 15.3 | > 1.63 | c1ccc2[nH]c(CNc3nc(N4CCOCC4)nc4c(-c5ccncc5)cnn34)nc2c1 [Example 111, N-[(1H-benzimidazol-2-yl)methyl]-2-(morpholin-4-yl)-8-(pyridin-4-yl)pyrazolo[1,5-a][1,3,5]triazin-4-amine hydrogen chloride (1/1)]
18 | 0.517 | 29.6 | > 20 | Brc1cnn2c(NCc3nc4ccccc4[nH]3)nc(N3C[C@H]4C[C@@H]3CO4)nc12 [Example 102, N-[(1H-benzimidazol-2-yl)methyl]-8-bromo-2-[(1R,4R)-2-oxa-5-azabicyclo[2.2.1]heptan-5-yl]pyrazolo[1,5-a][1,3,5]triazin-4-amine]
19 | 0.743 | 2.95 | > 20 | COc1ccc2[nH]c(CNc3nc(N4CCOCC4)nc4c(Br)cnn34)nc2c1 [Example 160, 8-bromo-N-[(5-methoxy-1H-benzimidazol-2-yl)methyl]-2-(morpholin-4-yl)pyrazolo[1,5-a][1,3,5]triazin-4-amine]
20 | 4.92 | 123 | > 20 | CCC1COCCN1c1nc(NCc2nc3ccccc3[nH]2)n2ncc(Br)c2n1 (stereo not drawn) [Example 116, N-(1H-benzimidazol-2-ylmethyl)-8-bromo-2-(3-ethylmorpholin-4-yl)pyrazolo[1,5-a][1,3,5]triazin-4-amine]
21 | 3.6 | 25.3 | > 20 | CC(C)c1cnn2c(NCc3nc4ccccc4[nH]3)nc(NCC(C)(C)O)nc12 [Example 10, 1-{[4-{[(1H-benzimidazol-2-yl)methyl]amino}-8-(propan-2-yl)pyrazolo[1,5-a][1,3,5]triazin-2-yl]amino}-2-methylpropan-2-ol]
